According to ChEMBL document CHEMBL1158459, “Discovery of a peroxisome proliferator activated receptor gamma (PPARgamma) modulator with balanced PPARalpha activity for the treatment of type 2 diabetes and dyslipidemia” (J Med Chem, 2009):
pEC50, pIC50: −log10 of the molar value.

Legend:
[1] = biological target: T1, Peroxisome proliferator-activated receptor gamma (Homo sapiens, UniProt P37231)
T1 sequence (P37231 whole entry): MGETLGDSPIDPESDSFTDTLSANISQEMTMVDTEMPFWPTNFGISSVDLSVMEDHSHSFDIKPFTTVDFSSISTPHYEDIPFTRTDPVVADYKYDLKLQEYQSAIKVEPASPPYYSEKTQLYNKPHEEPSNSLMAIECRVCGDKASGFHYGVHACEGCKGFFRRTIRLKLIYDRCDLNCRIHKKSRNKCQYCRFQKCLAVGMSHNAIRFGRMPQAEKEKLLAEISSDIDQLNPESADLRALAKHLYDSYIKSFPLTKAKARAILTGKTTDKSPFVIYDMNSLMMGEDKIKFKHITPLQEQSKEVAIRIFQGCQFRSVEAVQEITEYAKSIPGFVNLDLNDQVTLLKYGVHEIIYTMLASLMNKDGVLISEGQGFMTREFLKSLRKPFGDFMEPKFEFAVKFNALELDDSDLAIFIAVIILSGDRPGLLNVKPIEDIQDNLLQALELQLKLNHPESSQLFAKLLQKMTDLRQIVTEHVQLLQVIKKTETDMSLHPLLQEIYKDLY
Description: Inhibition of human PPARgamma receptor by scintillation proximity assay

[2] = biological target: T2, Peroxisome proliferator-activated receptor alpha (Homo sapiens, UniProt Q07869); format: functional, cell-based, COS-1
T2 sequence (Q07869 whole entry): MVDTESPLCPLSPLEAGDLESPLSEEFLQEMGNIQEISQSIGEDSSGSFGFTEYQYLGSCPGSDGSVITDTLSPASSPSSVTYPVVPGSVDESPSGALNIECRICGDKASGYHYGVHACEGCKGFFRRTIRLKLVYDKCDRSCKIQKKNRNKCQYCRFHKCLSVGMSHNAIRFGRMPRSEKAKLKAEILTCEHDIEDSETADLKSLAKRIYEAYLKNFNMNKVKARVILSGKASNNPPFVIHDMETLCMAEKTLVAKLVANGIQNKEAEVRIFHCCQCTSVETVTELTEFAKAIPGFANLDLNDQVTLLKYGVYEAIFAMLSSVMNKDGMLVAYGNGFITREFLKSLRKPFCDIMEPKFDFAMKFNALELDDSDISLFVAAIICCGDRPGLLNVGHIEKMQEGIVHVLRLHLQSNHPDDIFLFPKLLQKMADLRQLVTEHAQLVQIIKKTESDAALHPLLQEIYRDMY
Description: Agonist activity at human PPARalpha receptor expressed in african green monkey COS1 cells co-transfected with fused yeast Gal4-DBD by transactivation assay

[3] = AUC in rat at 2 mg/kg, po; format: ADME, organism-based, Plasma; parameters: dose 2 mg/kg, route oral; details: plasma
Mus musculus [4] = experiment: Antidiabetic activity in C57BLKS/J-m+/+Leprdb db/db mouse assessed as reduction in plasma triglyceride levels at 10 mg/kg, po once daily for 11 days relative to control; format: functional; parameters: scale not given: the % may be the effect or the level left
[5] = biological target: T1, Peroxisome proliferator-activated receptor gamma; remark: listed apart in the source
Description: Agonist activity at human PPARgamma receptor expressed in african green monkey COS1 cells co-transfected with fused yeast Gal4-DBD by transactivation assay

[6] = biological target: T3, Peroxisome proliferator-activated receptor alpha (Mus musculus, UniProt P23204); experiment: Agonist activity at mouse PPARalpha receptor expressed in african green monkey COS1 cells co-transfected with fused yeast Gal4-DBD by transactivation assay; format: functional, cell-based, COS-1
T3 sequence (P23204 whole entry): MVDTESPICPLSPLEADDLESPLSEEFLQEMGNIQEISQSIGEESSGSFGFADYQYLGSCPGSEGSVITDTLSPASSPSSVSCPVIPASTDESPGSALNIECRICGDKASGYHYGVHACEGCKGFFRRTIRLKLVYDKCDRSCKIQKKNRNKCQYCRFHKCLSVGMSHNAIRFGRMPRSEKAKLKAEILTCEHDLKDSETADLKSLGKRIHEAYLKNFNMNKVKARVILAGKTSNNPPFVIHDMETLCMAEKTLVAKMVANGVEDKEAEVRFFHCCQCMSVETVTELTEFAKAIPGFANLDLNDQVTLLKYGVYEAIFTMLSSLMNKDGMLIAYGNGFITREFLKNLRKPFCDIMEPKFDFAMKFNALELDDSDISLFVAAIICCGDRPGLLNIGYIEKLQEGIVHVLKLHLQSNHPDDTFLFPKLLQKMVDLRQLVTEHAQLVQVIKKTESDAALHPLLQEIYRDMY

Mus musculus [7] = experiment: Antidiabetic activity in C57BLKS/J-m+/+Leprdb db/db mouse assessed as reduction in plasma glucose levels at 10 mg/kg, po once daily for 11 days relative to control; format: functional; parameters: scale not given: the % may be the effect or the level left
[8] = biological target: T2, Peroxisome proliferator-activated receptor alpha; experiment: Inhibition of human PPARalpha receptor by scintillation proximity assay
Canis familiaris [9] = experiment: Antidiabetic activity in Beagle dog assessed as reduction in total cholesterol level at 4 mg/kg, po once daily for 14 days relative to control; format: functional, Canis lupus familiaris; parameters: scale not given: the % may be the effect or the level left
Syrian golden hamster [10] = experiment: Antidiabetic activity in Syrian golden hamster assessed as reduction in triglyceride level at 100 mg/kg, po once daily for 9 days relative to control; format: functional, Mesocricetus auratus; parameters: scale not given: the % may be the effect or the level left
Syrian golden hamster [11] = experiment: Antidiabetic activity in Syrian golden hamster assessed as reduction in cholesterol level at 100 mg/kg, po once daily for 9 days relative to control; format: functional, Mesocricetus auratus; parameters: scale not given: the % may be the effect or the level left
[12] = Cmax in Beagle dog at 50 mg/kg, po once daily for 14 days; format: ADME, organism-based, Canis lupus familiaris; parameters: dose 50 mg/kg, route oral; details: in vivo
[13] = AUC in Sprague-Dawley rat at 300 mg/kg, po once daily for 14 days; format: ADME, organism-based; parameters: dose 300 mg/kg, route oral; details: plasma
[14] = AUC in Beagle dog at 50 mg/kg, po once daily for 14 days; format: ADME, organism-based, Canis lupus familiaris; parameters: dose 50 mg/kg, route oral; details: plasma
Canis familiaris [15] = experiment: Antidiabetic activity in Beagle dog assessed as reduction in total cholesterol level at 50 mg/kg, po once daily for 14 days relative to control; format: functional, Canis lupus familiaris; parameters: scale not given: the % may be the effect or the level left
[16] = AUC in Syrian golden hamster at 100 mg/kg, po once daily for 9 days; format: ADME, organism-based, Mesocricetus auratus; parameters: dose 100 mg/kg, route oral; details: plasma

Cc1c(C(=O)c2ccc(Cl)cc2)c2ccc(OC(F)(F)F)cc2n1Cc1cccc(O[C@H](C(=O)O)C(C)C)c1
pIC50 [1]: 7.77
pEC50 [2]: 6.43
AUC [3]: 1.5 µM·h
Activity (Mus musculus [4]): 37%
pEC50 [5]: 7.68
pEC50 [6]: 6.44
Activity (Mus musculus [7]): 76%
pIC50 [8]: 5.53

Cc1c(C(=O)c2ccc(Cl)cc2)c2ccc(OC(F)(F)F)cc2n1Cc1cccc(O[C@@H](C)C(=O)O)c1
pEC50 [2]: 5.31
AUC [3]: 0.6 µM·h
Activity (Mus musculus [4]): 4%
pEC50 [6]: < 5.52
Activity (Mus musculus [7]): 53%
pIC50 [8]: < 4.82

CC[C@H](Oc1cccc(Cn2c(C)c(C(=O)c3ccc(Cl)cc3)c3ccc(OC(F)(F)F)cc32)c1)C(=O)O
pIC50 [1]: 8.40
pEC50 [2]: 6.30
Activity (Mus musculus [4]): 7%
pEC50 [5]: 8.22
pEC50 [6]: < 5.52
Activity (Mus musculus [7]): 22%
pIC50 [8]: < 4.82

CCC[C@@H](Oc1cccc(Cn2c(C)c(C(=O)c3ccc(Cl)cc3)c3ccc(OC(F)(F)F)cc32)c1)C(=O)O
pIC50 [1]: 7.92
pEC50 [2]: 6.42
AUC [3]: 1.7 µM·h
Activity (Mus musculus [4]): 80%
pEC50 [5]: 8.00
pEC50 [6]: 6.96
Activity (Mus musculus [7]): 94%
pIC50 [8]: < 4.82

CCC(C)(C)C(=O)O[C@H]1C[C@@H](C)C=C2C=C[C@H](C)[C@H](CC[C@@H]3C[C@@H](O)CC(=O)O3)[C@H]21 [SIMVASTATIN]
Activity (Canis familiaris [9]): 18.4%

Cc1c(C(=O)c2ccc(Cl)cc2)c2ccc(OC(F)(F)F)cc2n1Cc1cccc(O[C@H](C)C(=O)O)c1
pIC50 [1]: 7.96
pEC50 [2]: 6.49
AUC [3]: 1.1 µM·h
Activity (Mus musculus [4]): 90%
pEC50 [5]: 8.40
pEC50 [6]: 7.55
Activity (Mus musculus [7]): 105%
pIC50 [8]: < 4.82

Cc1c(Cc2cccc(OCC(=O)O)c2)c2cc(OC(F)(F)F)ccc2n1C(=O)c1ccc(Cl)cc1
pIC50 [1]: 9.00
pEC50 [2]: < 5.52
pEC50 [5]: 8.52
pEC50 [6]: < 5.52
pIC50 [8]: < 4.82

CC(C)OC(=O)C(C)(C)Oc1ccc(C(=O)c2ccc(Cl)cc2)cc1 [FENOFIBRATE]
Activity (Syrian golden hamster [10]): 33.7%
Activity (Syrian golden hamster [11]): 22.7%
Cmax [12]: 15 µM
AUC at 336 h [13]: 5600 µM·h
AUC at 336 h [14]: 117 µM·h
Activity (Canis familiaris [15]): 17%
AUC at 216 h [16]: 1800 µM·h
